# ChEMBL document CHEMBL1130155, “Synthesis and structure-activity relationships of potent thrombin inhibitors: piperazides of 3-amidinophenylalanine” (J Med Chem, 1997)
# How the values were obtained:
# Prothrombin = Prothrombin (Bos taurus, UniProt P00735)
# Description: Inhibitory activity against thrombin
# Serine protease 1 = biological target: T1, Serine protease 1 (Bos taurus, UniProt P00760); experiment: Inhibitory activity against trypsin
# T1 sequence (P00760 whole entry): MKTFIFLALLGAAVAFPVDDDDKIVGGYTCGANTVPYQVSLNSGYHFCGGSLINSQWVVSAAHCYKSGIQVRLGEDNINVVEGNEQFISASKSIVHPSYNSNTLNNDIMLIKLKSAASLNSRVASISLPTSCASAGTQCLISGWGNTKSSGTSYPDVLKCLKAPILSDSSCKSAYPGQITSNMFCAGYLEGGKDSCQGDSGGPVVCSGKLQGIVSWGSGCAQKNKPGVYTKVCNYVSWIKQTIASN
# Coagulation factor X = Coagulation factor X (Bos taurus, UniProt P00743); experiment: Inhibitory activity against coagulation factor X.
# Coagulation factor X, sequence (P00743 41-180 limits assumed): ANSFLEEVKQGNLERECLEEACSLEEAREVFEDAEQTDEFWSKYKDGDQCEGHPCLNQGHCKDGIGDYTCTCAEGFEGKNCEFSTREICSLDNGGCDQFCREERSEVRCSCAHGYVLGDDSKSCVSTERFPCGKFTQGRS
# Coagulation factor X, sequence (P00743 234-492 limits assumed): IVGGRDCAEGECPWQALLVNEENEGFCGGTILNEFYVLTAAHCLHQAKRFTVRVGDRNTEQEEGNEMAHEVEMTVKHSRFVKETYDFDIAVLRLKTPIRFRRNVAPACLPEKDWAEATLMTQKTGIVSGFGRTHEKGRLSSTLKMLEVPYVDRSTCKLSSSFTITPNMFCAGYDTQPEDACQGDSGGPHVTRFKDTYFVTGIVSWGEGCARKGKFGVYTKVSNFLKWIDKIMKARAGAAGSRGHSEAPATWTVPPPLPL
# Plasminogen [1] = biological target: T2, Plasminogen (Homo sapiens, UniProt P00747); experiment: Inhibitory activity against plasmin
# T2 sequence (P00747 97-580 limits assumed): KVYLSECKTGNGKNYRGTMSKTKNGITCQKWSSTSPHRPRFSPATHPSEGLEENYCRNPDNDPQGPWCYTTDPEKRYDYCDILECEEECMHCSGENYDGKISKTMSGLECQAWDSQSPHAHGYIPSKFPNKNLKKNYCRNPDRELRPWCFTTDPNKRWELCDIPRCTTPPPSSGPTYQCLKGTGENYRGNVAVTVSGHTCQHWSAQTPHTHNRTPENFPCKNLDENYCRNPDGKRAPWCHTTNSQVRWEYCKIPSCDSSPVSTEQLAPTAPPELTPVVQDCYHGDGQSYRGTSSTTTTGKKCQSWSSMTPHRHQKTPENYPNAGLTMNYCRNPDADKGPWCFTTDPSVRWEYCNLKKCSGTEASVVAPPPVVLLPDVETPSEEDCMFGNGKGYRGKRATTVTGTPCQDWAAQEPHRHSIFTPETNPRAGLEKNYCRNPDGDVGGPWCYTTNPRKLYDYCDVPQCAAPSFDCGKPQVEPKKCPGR
# T2 sequence (P00747 581-810 limits assumed): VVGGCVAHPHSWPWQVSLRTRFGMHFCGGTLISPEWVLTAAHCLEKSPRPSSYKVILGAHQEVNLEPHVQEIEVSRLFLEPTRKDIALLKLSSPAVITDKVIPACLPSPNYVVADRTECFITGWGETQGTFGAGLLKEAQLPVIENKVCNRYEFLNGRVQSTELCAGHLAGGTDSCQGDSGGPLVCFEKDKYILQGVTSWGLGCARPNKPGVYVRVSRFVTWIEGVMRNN
# [2] = biological target: Urokinase-type plasminogen activator (Homo sapiens, UniProt P00749); experiment: Inhibitory activity against UK.
# Coagulation factor XII = biological target: T3, Coagulation factor XII (Homo sapiens, UniProt P00748); experiment: Inhibitory activity against Coagulation factor XII
# T3 sequence (P00748 whole entry): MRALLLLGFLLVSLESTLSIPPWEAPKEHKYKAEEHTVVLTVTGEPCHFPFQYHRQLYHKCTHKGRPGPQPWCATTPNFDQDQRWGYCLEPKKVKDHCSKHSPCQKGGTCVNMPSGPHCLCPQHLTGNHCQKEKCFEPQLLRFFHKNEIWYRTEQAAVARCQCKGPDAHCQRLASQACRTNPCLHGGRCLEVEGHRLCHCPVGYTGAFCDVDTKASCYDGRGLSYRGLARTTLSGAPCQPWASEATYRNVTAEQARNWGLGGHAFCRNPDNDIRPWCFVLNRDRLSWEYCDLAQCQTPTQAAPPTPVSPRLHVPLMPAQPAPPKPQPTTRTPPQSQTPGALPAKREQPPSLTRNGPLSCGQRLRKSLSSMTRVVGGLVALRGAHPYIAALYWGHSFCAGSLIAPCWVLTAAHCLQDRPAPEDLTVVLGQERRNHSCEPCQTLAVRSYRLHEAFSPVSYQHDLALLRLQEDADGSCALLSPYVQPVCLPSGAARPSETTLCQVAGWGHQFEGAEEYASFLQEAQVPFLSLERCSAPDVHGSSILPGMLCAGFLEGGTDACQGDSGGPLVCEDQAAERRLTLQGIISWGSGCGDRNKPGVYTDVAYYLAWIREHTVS
# Plasminogen [3] = biological target: T2, Plasminogen; experiment: Inhibitory activity against Plasmin.
# [4] = Concentration for doubling of prothrombin time; type: functional, Homo sapiens
# Plasma kallikrein = Plasma kallikrein (Homo sapiens, UniProt P03952); experiment: Inhibitory activity against Kallikrein (PK)
# Plasma kallikrein, sequence (P03952 20-390 limits assumed): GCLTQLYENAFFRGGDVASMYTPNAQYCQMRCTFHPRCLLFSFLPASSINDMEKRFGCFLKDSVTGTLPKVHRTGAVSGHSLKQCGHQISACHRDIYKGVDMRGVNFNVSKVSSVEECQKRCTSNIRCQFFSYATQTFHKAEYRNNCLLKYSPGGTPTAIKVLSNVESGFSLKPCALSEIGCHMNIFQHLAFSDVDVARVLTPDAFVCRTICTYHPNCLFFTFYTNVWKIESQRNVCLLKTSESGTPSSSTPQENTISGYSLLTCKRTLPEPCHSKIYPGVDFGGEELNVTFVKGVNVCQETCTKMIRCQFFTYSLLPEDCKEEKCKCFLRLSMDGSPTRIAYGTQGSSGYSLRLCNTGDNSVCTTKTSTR
# Plasma kallikrein, sequence (P03952 391-638 limits assumed): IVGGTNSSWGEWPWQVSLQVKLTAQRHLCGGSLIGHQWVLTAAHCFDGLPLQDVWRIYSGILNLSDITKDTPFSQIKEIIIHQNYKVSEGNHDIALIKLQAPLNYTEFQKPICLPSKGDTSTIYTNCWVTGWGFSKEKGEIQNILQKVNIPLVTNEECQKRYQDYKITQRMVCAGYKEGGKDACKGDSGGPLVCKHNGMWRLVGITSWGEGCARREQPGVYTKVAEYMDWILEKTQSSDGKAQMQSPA
# [5] = Concentration for doubling of thrombin time; type: functional, Homo sapiens
# [6] = Concentration for doubling of partial thromboplastin time; type: functional, Homo sapiens
# [7] = biological target: Tissue-type plasminogen activator (Homo sapiens, UniProt P00750); experiment: Inhibitory activity against single-chain tissue-type plasminogen activator (sc-tissue plasminogen activator)
# Tissue-type plasminogen activator, sequence (P00750 whole entry): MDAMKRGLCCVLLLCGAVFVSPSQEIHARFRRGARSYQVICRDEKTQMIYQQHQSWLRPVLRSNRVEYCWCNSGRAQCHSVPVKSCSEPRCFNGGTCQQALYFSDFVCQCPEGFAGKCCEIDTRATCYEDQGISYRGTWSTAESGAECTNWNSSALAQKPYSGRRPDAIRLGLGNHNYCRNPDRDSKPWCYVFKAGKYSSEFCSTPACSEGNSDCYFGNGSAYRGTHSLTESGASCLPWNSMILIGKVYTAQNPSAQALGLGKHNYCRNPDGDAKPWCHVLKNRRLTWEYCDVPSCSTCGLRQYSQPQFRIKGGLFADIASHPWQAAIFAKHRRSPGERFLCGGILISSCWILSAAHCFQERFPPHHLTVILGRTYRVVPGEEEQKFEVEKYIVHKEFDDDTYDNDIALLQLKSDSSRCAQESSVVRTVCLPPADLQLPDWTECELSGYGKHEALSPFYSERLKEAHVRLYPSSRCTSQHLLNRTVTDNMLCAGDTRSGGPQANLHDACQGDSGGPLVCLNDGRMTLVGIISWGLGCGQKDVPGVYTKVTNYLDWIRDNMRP
# [8] = biological target: Vitamin K-dependent protein C (Homo sapiens, UniProt P04070); experiment: Inhibitory activity against Activated protein C
# Vitamin K-dependent protein C, sequence (P04070 43-197 limits assumed): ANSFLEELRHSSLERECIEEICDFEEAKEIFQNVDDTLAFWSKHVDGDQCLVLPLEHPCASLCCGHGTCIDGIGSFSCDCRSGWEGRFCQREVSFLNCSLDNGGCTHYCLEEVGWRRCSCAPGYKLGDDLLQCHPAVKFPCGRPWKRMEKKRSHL
# Vitamin K-dependent protein C, sequence (P04070 212-461 limits assumed): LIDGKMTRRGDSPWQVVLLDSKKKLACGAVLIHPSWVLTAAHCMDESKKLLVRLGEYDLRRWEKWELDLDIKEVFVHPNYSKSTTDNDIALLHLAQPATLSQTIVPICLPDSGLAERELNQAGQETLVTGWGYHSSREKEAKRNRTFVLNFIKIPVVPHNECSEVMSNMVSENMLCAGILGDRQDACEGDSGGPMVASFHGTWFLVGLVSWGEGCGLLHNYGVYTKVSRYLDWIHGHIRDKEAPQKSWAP
SMILES,Ki (Prothrombin) [µM],Ki (Serine protease 1) [µM],Ki (Coagulation factor X) [µM],Ki (Plasminogen [1]) [µM],further results
N=C(N)c1cccc(C[C@H](NS(=O)(=O)c2ccc3ccccc3c2)C(=O)N2CCN(CCO)CC2)c1,5.6,39,–,–,–
CS(=O)(=O)N1CCN(C(=O)C(Cc2cccc(C(=N)N)c2)NS(=O)(=O)c2ccc3ccccc3c2)CC1 (stereo not given),–,0.19,–,–,–
CC(=O)N1CCN(C(=O)[C@H](Cc2cccc(C(=N)N)c2)NS(=O)(=O)c2ccc3ccccc3c2)CC1,–,17,–,–,–
COc1cc(C)c(S(=O)(=O)NC(Cc2cccc(C(=N)N)c2)C(=O)N2CCN(S(C)(=O)=O)CC2)c(C)c1C (stereo not given),–,1.8,–,–,–
N=C(N)c1cccc(C[C@H](NS(=O)(=O)c2ccc3ccccc3c2)C(=O)N2CCN(C=O)CC2)c1,1.6,11.1,–,–,–
CC(=O)N1CCN(C(=O)C(Cc2cccc(C(=N)N)c2)NS(=O)(=O)c2ccc3ccccc3c2)CC1 (stereo not given),–,0.14,–,–,–
N=C(N)c1cccc(C[C@@H](NS(=O)(=O)c2ccc3ccccc3c2)C(=O)N2CCN(CCO)CC2)c1,0.037,0.6,22,–,Ki [2]: 140 µM; Ki (Coagulation factor XII): 400 µM; Ki (Plasminogen [3]): 21 µM; IC50 [4]: 1.1 µM; Ki (Plasma kallikrein): 27 µM; IC50 [5]: 0.14 µM; IC50 [6]: 0.56 µM; Ki [7]: 180 µM; Ki [8]: 39 µM
CS(=O)(=O)N1CCN(C(=O)[C@@H](Cc2cccc(C(=N)N)c2)NS(=O)(=O)c2ccc3ccccc3c2)CC1,–,0.067,19,–,Ki [2]: 28 µM; Ki (Coagulation factor XII): 52 µM; Ki (Plasminogen [3]): 9 µM; IC50 [4]: 0.39 µM; Ki (Plasma kallikrein): 58 µM; IC50 [5]: 0.037 µM; IC50 [6]: 0.26 µM; Ki [7]: 190 µM; Ki [8]: 15.2 µM
CN1CCN(C(=O)C(Cc2cccc(C(=N)N)c2)NS(=O)(=O)c2ccc3ccccc3c2)CC1 (stereo not given),0.036,–,30,55,–
CCN(CC)C(=O)N1CCN(C(=O)C(Cc2cccc(C(=N)N)c2)NS(=O)(=O)c2ccc3ccccc3c2)CC1 (stereo not given),0.51,0.22,12,14,–
CN(C)C(=O)N1CCN(C(=O)[C@@H](Cc2cccc(C(=N)N)c2)NS(=O)(=O)c2ccc3ccccc3c2)CC1,0.004,0.097,16,–,Ki [2]: 28 µM; Ki (Coagulation factor XII): 61 µM; Ki (Plasminogen [3]): 4.9 µM; IC50 [4]: 0.72 µM; Ki (Plasma kallikrein): 7.3 µM; IC50 [5]: 0.042 µM; IC50 [6]: 0.39 µM; Ki [7]: > 1000 µM; Ki [8]: 13.5 µM
Cc1c(C)c(S(=O)(=O)N[C@H](Cc2cccc(C(=N)N)c2)C(=O)N2CCN(S(C)(=O)=O)CC2)c(C)c2c1OC(C)(C)CC2,0.0053,0.32,41,–,Ki [2]: 58 µM; Ki (Coagulation factor XII): > 1000 µM; Ki (Plasma kallikrein): 97 µM; Ki [7]: 470 µM; Ki [8]: 180 µM
CN(C)C(=O)N1CCN(C(=O)C(Cc2cccc(C(=N)N)c2)NS(=O)(=O)c2ccc3ccccc3c2)CC1 (stereo not given),–,0.17,–,–,–
Cc1c(C)c(S(=O)(=O)NC(Cc2cccc(C(=N)N)c2)C(=O)N2CCN(S(C)(=O)=O)CC2)c(C)c2c1OC(C)(C)CC2 (stereo not given),–,0.76,–,–,–
CC(C)c1cc(C(C)C)c(S(=O)(=O)NC(Cc2cccc(C(=N)N)c2)C(=O)N2CCN(S(C)(=O)=O)CC2)c(C(C)C)c1 (stereo not given),–,–,7.4,6.4,–
CN(C)C(=O)N1CCN(C(=O)[C@H](Cc2cccc(C(=N)N)c2)NS(=O)(=O)c2ccc3ccccc3c2)CC1,0.35,8.5,–,–,–
CC1(C)C2CCC1(CCS(=O)(=O)N[C@H](Cc1cccc(C(=N)N)c1)C(=O)N1CCN(S(C)(=O)=O)CC1)C(=O)C2 (stereo not given in full),0.012,0.22,1.1,–,Ki [2]: 49 µM; Ki (Coagulation factor XII): 55 µM; Ki (Plasminogen [3]): 14 µM; Ki (Plasma kallikrein): 22 µM; Ki [7]: 20 µM; Ki [8]: 33 µM
CN1CCN(C(=O)[C@H](Cc2cccc(C(=N)N)c2)NS(=O)(=O)c2ccc3ccccc3c2)CC1,7.1,73,–,–,–
N=C(N)c1cccc(CC(NS(=O)(=O)c2ccc3ccccc3c2)C(=O)N2CCN(C(=O)Oc3ccccc3)CC2)c1 (stereo not given),17,0.028,43,2.3,–
CS(=O)(=O)N1CCN(C(=O)[C@H](Cc2cccc(C(=N)N)c2)NS(=O)(=O)c2ccc3ccccc3c2)CC1,–,13,–,–,–
CCS(=O)(=O)N1CCN(C(=O)C(Cc2cccc(C(=N)N)c2)NS(=O)(=O)c2ccc3ccccc3c2)CC1 (stereo not given),–,0.19,–,–,–
CC(C)(C)c1ccc(S(=O)(=O)NC(Cc2cccc(C(=N)N)c2)C(=O)N2CCN(S(C)(=O)=O)CC2)cc1 (stereo not given),–,–,–,14,–
CC1CCN(C(=O)C(Cc2cccc(C(=N)N)c2)NS(=O)(=O)c2ccc3ccccc3c2)CC1 (stereo not given),–,–,41,5.2,–
"CC1CNc2c(cccc2S(=O)(=O)N[C@@H](CCCNC(=N)N)C(=O)N2CCC(C)C[C@@H]2C(=O)O)C1 (single isomer, unassigned) [ARGATROBAN]",–,–,–,–,IC50 [4]: 0.66 µM; IC50 [5]: 0.062 µM; IC50 [6]: 0.42 µM

# The next lines start with results.
Ki (Prothrombin) [µM],Ki (Serine protease 1) [µM],Ki (Coagulation factor X) [µM],Ki (Plasminogen [1]) [µM],SMILES,further results
–,–,38,7,N=C(N)c1cccc(CC(NS(=O)(=O)c2ccc3ccccc3c2)C(=O)N2CCCCC2)c1 (stereo not given),–
7.6,0.14,16,7.2,N=C(N)c1cccc(CC(NS(=O)(=O)c2ccc3ccccc3c2)C(=O)N2CCN(C(=O)c3ccccc3)CC2)c1 (stereo not given),–
–,1.1,–,–,N=C(N)c1cccc(CC(NS(=O)(=O)c2ccc3ccccc3c2)C(=O)N2CCN(CCO)CC2)c1 (stereo not given),–
0.22,1,29,29,CS(=O)(=O)N1CCN(C(=O)C(Cc2cccc(C(=N)N)c2)NS(=O)(=O)c2ccccc2)CC1 (stereo not given),–
–,–,27,2.6,N=C(N)c1cccc(CC(NS(=O)(=O)c2ccc3ccccc3c2)C(=O)N2CCN(c3ccccc3)CC2)c1 (stereo not given),–
0.46,0.19,7.3,3,N=C(N)c1cccc(CC(NS(=O)(=O)c2ccc3ccccc3c2)C(=O)N2CCN(C(=O)c3ccc4ccccc4c3)CC2)c1 (stereo not given),–
–,0.22,–,–,Cc1ccc(S(=O)(=O)N2CCN(C(=O)C(Cc3cccc(C(=N)N)c3)NS(=O)(=O)c3ccc4ccccc4c3)CC2)cc1 (stereo not given),–
0.28,0.21,22,7.8,CCCS(=O)(=O)N1CCN(C(=O)C(Cc2cccc(C(=N)N)c2)NS(=O)(=O)c2ccc3ccccc3c2)CC1 (stereo not given),–
–,0.072,–,–,N=C(N)c1cccc(CC(NS(=O)(=O)c2ccc3ccccc3c2)C(=O)N2CCN(C(=O)C3CCCCC3)CC2)c1 (stereo not given),–
–,0.33,–,–,N=C(N)c1cccc(CC(NS(=O)(=O)c2ccc3ccccc3c2)C(=O)N2CCN(S(=O)(=O)c3ccccc3)CC2)c1 (stereo not given),–
–,–,21,10.2,N=C(N)c1cccc(CC(NS(=O)(=O)c2ccc3ccccc3c2)C(=O)N2CCNCC2)c1 (stereo not given),–
–,–,77,2.8,COC(=O)N1CCN(C(=O)C(Cc2cccc(C(=N)N)c2)NS(=O)(=O)c2ccc3ccccc3c2)CC1 (stereo not given),–
–,0.4,–,–,N=C(N)c1cccc(CC(NS(=O)(=O)c2ccc3ccccc3c2)C(=O)N2CCN(S(=O)(=O)c3ccc4ccccc4c3)CC2)c1 (stereo not given),–
0.35,0.18,18,11,CCCCS(=O)(=O)N1CCN(C(=O)C(Cc2cccc(C(=N)N)c2)NS(=O)(=O)c2ccc3ccccc3c2)CC1 (stereo not given),–
0.67,0.022,54,2.5,CCOC(=O)N1CCN(C(=O)C(Cc2cccc(C(=N)N)c2)NS(=O)(=O)c2ccc3ccccc3c2)CC1 (stereo not given),–
–,0.064,–,–,CCCCCC(=O)N1CCN(C(=O)C(Cc2cccc(C(=N)N)c2)NS(=O)(=O)c2ccc3ccccc3c2)CC1 (stereo not given),–
–,–,> 1000,> 1000,CS(=O)(=O)N1CCN(C(=O)C(N)Cc2cccc(C(=N)N)c2)CC1 (stereo not given),–
–,0.22,–,–,N=C(N)c1cccc(CC(NS(=O)(=O)c2ccc3ccccc3c2)C(=O)N2CCN(C=O)CC2)c1 (stereo not given),–
1.04,0.049,80,8.6,CCCC(=O)N1CCN(C(=O)C(Cc2cccc(C(=N)N)c2)NS(=O)(=O)c2ccc3ccccc3c2)CC1 (stereo not given),–
0.012,0.22,1.1,14,CC1(C)C2CCC1(CCS(=O)(=O)NC(Cc1cccc(C(=N)N)c1)C(=O)N1CCN(S(C)(=O)=O)CC1)C(=O)C2 (stereo in doubt; 28),–
0.031,0.44,6.7,29,CC1(C)C2CCC1(CCS(=O)(=O)NC(Cc1cccc(C(=N)N)c1)C(=O)N1CCN(S(C)(=O)=O)CC1)C(=O)C2 (stereo in doubt; 30),–
